Source: ChEMBL document CHEMBL1152088, “Activated ketones as potent reversible inhibitors of interleukin-I converting enzyme” (Bioorg Med Chem Lett, 1994)
pKi: −log10 of the molar value.

target: T1, Caspase-1 (Homo sapiens, UniProt P29466); assay: Tested for inhibition of cysteine proteinase IL-1 beta converting enzyme (ICE)
T1 sequence (P29466 whole entry): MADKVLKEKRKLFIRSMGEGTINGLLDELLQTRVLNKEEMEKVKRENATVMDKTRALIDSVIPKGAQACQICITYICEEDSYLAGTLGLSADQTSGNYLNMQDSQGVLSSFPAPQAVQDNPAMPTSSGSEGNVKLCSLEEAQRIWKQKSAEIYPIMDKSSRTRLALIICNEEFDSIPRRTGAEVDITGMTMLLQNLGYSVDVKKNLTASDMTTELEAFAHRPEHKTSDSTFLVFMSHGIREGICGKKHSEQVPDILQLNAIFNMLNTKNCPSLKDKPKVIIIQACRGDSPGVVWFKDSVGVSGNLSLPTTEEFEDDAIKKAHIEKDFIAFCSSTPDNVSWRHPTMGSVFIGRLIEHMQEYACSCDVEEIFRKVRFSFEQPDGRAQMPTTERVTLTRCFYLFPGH

Row | SMILES | pKi
1 | CC(C)[C@H](NC(=O)CCc1ccccc1)C(=O)N[C@@H](C)C(=O)NC(CC(=O)O)C(=O)CSCCCc1ccccc1 (stereo partly drawn) | 7.96
2 | CC(C)[C@H](NC(=O)CCc1ccccc1)C(=O)N[C@@H](C)C(=O)NC(CC(=O)O)C(=O)CN(CCc1ccccc1)Cc1ccccc1 (stereo partly drawn) | 7.22
3 | CC(C)[C@H](NC(=O)CCc1ccccc1)C(=O)N[C@@H](C)C(=O)NC(CC(=O)O)C(=O)CCCCc1ccccc1 (stereo partly drawn) | 7.00
4 | CC(C)[C@H](NC(=O)CCc1ccccc1)C(=O)N[C@@H](C)C(=O)NC(CC(=O)O)C(=O)COC(=O)CCc1ccccc1 (stereo partly drawn) | 8.57
5 | CC(C)[C@H](NC(=O)CCc1ccccc1)C(=O)N[C@@H](C)C(=O)NC(CC(=O)O)C(=O)CNCCc1ccccc1 (stereo partly drawn) | 8.33
6 | CC(C)[C@H](NC(=O)CCc1ccccc1)C(=O)N[C@@H](C)C(=O)NC(CC(=O)O)C(=O)CS(=O)(=O)CCCc1ccccc1 (stereo partly drawn) | 6.95
7 | CC(C)[C@H](NC(=O)CCc1ccccc1)C(=O)N[C@@H](C)C(=O)NC(CC(=O)O)C(=O)COC(=O)NCc1ccccc1 (stereo partly drawn) | 6.92
8 | CC(C)[C@H](NC(=O)CCc1ccccc1)C(=O)N[C@@H](C)C(=O)NC(CC(=O)O)C(=O)C[S+]([O-])CCCc1ccccc1 (stereo partly drawn) | 7.57
